According to patent publication US20090054529A1, “Flow Path Conditioner System” (priority 2005, published 2009):

Tested on: E coli (ATCC 25922, MRI EC 13) and Pseudomonas aeruginosa (ATCC 9027, MRI Ps 10)
Test: Example 4 summary of the 62 test samples (both cultures pooled)
Type: cell-based
Conditions: aqueous mixtures of up to 20% v/v; Example 4 text summary
Protocol: Freshly cultivated cultures of E coli (ATCC 25922, MRI EC 13) and Pseudomonas aeruginosa (ATCC 9027, MRI Ps 10) were suspended in MHB (Mueller-Hinton Broth) nutrient broth at 10^8 cfu/ml (colony-forming units per milliliter), diluted about 1:10 in peptone nutrient broth to about 10^7 cfu/ml. About 1 ml of each of the diluted cultures was added to one each of 9 ml of the corresponding test solutions described below for 5.0 minutes and then diluted in two steps of 1:10 per step. 100 microliters of such diluted culture was then plated onto a conventional nutrient agar plate. Nutrient agar plates were incubated by conventional methods and the number of colonies present on each plate were counted. Positive controls combined freshly cultivated cultures above described with peptone broth were included in each test group and numbers of colonies in control plates were used as a reference.
Now referring to Table 4, the results of combining each test solution as described above with each of the E coli (ATCC 25922, MRI EC 13) and Pseudomonas aeruginosa (ATCC 9027, MRI Ps 10) cultures are summarized using the following quantitative nomenclature: […]

Row | SMILES | effectiveness in reducing microorganisms
1 | CO [methanol] | do not appear to be effective
2 | CCO [ethanol] | do not appear to be effective
